The structures appear in SMILES notation.

In one assay the target is ROCK2 (Homo sapiens (Human), UniProt O75116). Description: ROCK assay (LABCHIP peptide phosphorylation), ROCK2. The assay is classed as biochemical. Conditions: 5 μM ATP, 1.5 μM peptide substrate.
The target in a further assay is ROCK1 (Homo sapiens (Human), UniProt Q13464). Description: ROCK assay (LABCHIP peptide phosphorylation), ROCK1. The assay is classed as biochemical. Conditions: 5 μM ATP, 1.5 μM peptide substrate; read-out: ROCK1 IC50.
Chain of ROCK1 (Q13464 whole entry, species assumed): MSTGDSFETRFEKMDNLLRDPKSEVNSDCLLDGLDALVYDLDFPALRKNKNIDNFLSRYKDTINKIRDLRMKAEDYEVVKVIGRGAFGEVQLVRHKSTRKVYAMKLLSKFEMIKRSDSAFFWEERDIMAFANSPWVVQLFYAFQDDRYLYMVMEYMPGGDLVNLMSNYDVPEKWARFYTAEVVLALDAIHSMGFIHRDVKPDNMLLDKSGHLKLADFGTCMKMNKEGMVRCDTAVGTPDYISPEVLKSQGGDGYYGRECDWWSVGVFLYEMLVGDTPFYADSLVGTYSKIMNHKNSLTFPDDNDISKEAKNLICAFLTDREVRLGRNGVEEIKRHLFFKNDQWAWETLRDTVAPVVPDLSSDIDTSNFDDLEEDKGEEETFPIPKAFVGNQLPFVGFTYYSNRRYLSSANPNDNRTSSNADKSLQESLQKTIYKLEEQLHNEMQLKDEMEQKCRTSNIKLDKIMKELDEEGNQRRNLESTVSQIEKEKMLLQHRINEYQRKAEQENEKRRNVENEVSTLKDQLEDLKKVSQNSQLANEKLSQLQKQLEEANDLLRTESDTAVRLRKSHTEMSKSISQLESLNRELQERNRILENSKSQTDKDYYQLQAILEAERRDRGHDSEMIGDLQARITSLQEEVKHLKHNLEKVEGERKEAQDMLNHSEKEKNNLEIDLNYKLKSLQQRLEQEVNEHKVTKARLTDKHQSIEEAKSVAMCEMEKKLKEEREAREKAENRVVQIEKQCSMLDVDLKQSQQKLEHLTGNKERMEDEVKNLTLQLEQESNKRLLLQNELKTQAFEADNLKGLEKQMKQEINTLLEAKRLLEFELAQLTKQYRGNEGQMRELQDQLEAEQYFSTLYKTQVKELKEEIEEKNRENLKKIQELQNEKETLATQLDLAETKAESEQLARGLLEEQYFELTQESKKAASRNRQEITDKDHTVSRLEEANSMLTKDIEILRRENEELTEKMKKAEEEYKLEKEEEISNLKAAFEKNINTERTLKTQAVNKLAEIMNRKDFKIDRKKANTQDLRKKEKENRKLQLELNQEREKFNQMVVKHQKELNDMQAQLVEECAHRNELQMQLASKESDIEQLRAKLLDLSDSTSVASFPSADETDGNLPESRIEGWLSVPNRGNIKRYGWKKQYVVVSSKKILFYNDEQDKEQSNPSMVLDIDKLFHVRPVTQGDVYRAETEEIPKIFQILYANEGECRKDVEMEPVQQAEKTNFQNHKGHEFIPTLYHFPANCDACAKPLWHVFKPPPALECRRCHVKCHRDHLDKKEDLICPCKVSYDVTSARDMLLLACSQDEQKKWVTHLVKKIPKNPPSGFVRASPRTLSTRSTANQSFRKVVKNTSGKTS

Chain of ROCK2 (O75116 whole entry, species assumed): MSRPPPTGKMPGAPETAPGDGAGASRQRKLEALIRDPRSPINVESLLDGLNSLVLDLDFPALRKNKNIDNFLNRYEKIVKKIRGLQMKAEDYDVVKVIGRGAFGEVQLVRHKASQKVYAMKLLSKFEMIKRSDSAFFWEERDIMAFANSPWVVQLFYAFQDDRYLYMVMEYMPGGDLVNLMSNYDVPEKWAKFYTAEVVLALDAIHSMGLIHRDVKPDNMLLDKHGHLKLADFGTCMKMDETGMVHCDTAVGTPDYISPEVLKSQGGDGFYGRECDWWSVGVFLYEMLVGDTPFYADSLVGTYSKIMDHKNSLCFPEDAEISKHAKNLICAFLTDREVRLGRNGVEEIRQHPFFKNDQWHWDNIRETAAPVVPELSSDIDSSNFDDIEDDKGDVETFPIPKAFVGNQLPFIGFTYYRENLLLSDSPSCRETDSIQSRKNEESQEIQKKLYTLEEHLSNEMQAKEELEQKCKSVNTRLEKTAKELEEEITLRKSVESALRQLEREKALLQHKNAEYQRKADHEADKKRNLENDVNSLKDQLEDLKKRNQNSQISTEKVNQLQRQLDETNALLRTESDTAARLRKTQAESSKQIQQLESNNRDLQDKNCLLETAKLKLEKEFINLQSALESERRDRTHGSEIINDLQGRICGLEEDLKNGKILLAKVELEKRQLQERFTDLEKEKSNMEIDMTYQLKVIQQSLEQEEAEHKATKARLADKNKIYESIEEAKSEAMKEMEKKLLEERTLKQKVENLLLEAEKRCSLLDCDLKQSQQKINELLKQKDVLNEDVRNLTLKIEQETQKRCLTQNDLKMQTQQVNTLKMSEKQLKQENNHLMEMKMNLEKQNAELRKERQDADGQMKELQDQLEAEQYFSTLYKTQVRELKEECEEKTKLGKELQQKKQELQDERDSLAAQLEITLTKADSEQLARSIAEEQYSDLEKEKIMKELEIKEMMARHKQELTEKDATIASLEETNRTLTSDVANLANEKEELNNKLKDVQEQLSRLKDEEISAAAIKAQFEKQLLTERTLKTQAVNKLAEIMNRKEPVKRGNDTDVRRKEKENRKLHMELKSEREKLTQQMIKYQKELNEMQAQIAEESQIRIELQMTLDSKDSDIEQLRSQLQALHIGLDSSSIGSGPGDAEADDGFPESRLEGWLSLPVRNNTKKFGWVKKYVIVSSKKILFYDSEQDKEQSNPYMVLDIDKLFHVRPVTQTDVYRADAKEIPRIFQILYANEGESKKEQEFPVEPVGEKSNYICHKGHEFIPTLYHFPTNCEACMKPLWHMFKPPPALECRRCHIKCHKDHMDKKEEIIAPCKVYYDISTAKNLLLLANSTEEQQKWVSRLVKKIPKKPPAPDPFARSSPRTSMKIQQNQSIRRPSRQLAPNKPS

For orientation: IC50 means the concentration that inhibits the measured activity by half. For `Cc1nc2ccccn2c1C(=O)Nc1ccc(-c2n[nH]c(=O)c3ccccc23)cc1` [Example 95, 2-methyl-N-[4-(4-oxo-3,4-dihydrophthalazin-1-yl)phenyl]imidazo[1,2-a]pyridine-3-carboxamide], the IC50 against ROCK2 and on ROCK1 was 0.1 to 100 nM each time.
`O=C(Nc1ccc(-c2c[nH]c(=O)c3ccccc23)cc1)c1ccc(N2CCCCC2)cc1` [Example 249, N-(4-(1-Oxo-1,2-dihydroisoquinolin-4-yl)phenyl)-4-(piperidin-1-yl)benzamide]: the IC50 at ROCK2 and on ROCK1 was 0.1 to 100 nM each time.
As for `CC(C)(O)CNC(=O)Cn1nc(C(=O)Nc2ccc(-c3n[nH]c(=O)c4ccccc34)cc2)c2ccccc21` [Example 334, 1-(2-((2-Hydroxy-2-methylpropyl)amino)-2-oxoethyl)-N-(4-(4-oxo-3,4-dihydrophthalazin-1-yl)phenyl)-1H-indazole-3-carboxamide], the IC50 against ROCK2 and at ROCK1 was 0.1 to 100 nM throughout.
In the case of `COc1ccc2c(=O)[nH]cc(-c3ccc(NC(=O)N4CCc5ccccc54)cc3C)c2c1` [Example 323, N-(4-(6-Methoxy-1-oxo-1,2-dihydroisoquinolin-4-yl)-3-methylphenyl)indoline-1-carboxamide], the IC50 against ROCK2 and at ROCK1 was 0.1 to 100 nM throughout.
As for `Cc1nn(-c2ccccc2)cc1C(=O)Nc1ccc(-c2n[nH]c(=O)c3ccccc23)cc1` [Example 228, 3-methyl-N-[4-(4-oxo-3,4-dihydrophthalazin-1-yl)phenyl]-1-phenyl-1H-pyrazole-4-carboxamide], the IC50 against ROCK2 and at ROCK1 was 0.1 to 100 nM each time.
For `O=C(COc1ccc2c(c1)N(C(=O)Cc1ccc(-c3n[nH]c(=O)c4ccccc34)cc1)CC2)N1CCOCC1` [Example 297, 4-(4-(2-(6-(2-Morpholino-2-oxoethoxy)indolin-1-yl)-2-oxoethyl)phenyl)phthalazin-1(2H)-one], the IC50 against ROCK2 and at ROCK1 was 0.1 to 100 nM each time.
As to `COc1ccn2ncc(C(=O)Nc3ccc(-c4n[nH]c(=O)c5ccccc45)cc3)c2c1` [Example 182, 5-methoxy-N-[4-(4-oxo-3,4-dihydrophthalazin-1-yl)phenyl]pyrazolo[1,5-a]pyridine-3-carboxamide], the IC50 against ROCK2 and on ROCK1 was 0.1 to 100 nM throughout.
On to `O=C(Nc1ccc(-c2n[nH]c(=O)c3ccccc23)c(CO)c1)c1nn(CC2CCOC2)c2ccc(F)cc12` (centres unmarked) [Example 366, 5-Fluoro-N-(3-(hydroxymethyl)-4-(4-oxo-3,4-dihydrophthalazin-1-yl)phenyl)-1-((tetrahydrofuran-3-yl)methyl)-1H-indazole-3-carboxamide], for which the values for the half-inhibitory concentration (IC50) against ROCK2 and on ROCK1 were 0.1 to 100 nM and 101 to 1000 nM, respectively.
For `O=C(Nc1ccc(-c2n[nH]c(=O)c3ccccc23)cc1)c1nn(Cc2ccncc2)c2ccccc12` [Example 165, N-[4-(4-oxo-3,4-dihydrophthalazin-1-yl)phenyl]-1-(pyridin-4-ylmethyl)-1H-indazole-3-carboxamide], the IC50 on ROCK2 and at ROCK1 was 0.1 to 100 nM in each case.
Consider `CN1CCc2nc(C(=O)Nc3ccc(-c4n[nH]c(=O)c5ccccc45)cc3)sc2C1` [Example 51, 5-methyl-N-[4-(4-oxo-3,4-dihydrophthalazin-1-yl)phenyl]-4H,5H,6H, 7H-[1,3]thiazolo[5,4-c] pyridine-2-carboxamide], for which the IC50 was 0.1 to 100 nM against ROCK2 and 1000 to 50000 nM at ROCK1.
With `O=c1[nH]nc(-c2ccc(Nc3nc4ccccc4o3)cc2)c2ccccc12` [Example 75, 4-(4-(Benzo[d]oxazol-2-ylamino)phenyl)phthalazin-1(2H)-one], the 50% inhibitory concentration (IC50) against ROCK2 and on ROCK1 was 0.1 to 100 nM each time.
As to `COc1cccc2cc(C(=O)Nc3ccc(-c4n[nH]c(=O)c5ccccc45)cc3)[nH]c12` [Example 129, 7-methoxy-N-[4-(4-oxo-3,4-dihydrophthalazin-1-yl)phenyl]-1H-indole-2-carboxamide], the 50% inhibitory concentration (IC50) at ROCK2 and on ROCK1 was 0.1 to 100 nM in each case.
For the compound `CC(C)(C)n1cc(C(=O)Nc2ccc(-c3n[nH]c(=O)c4ccccc34)cc2)cn1` [Example 381, 1-(tert-Butyl)-N-(4-(4-oxo-3,4-dihydrophthalazin-1-yl)phenyl)-1H-pyrazole-4-carboxamide], the concentration for half-maximal inhibition (IC50) at ROCK2 and on ROCK1 was 0.1 to 100 nM each time.
Turning to `O=C(Cc1ccc(-c2n[nH]c(=O)c3ccccc23)cc1)N1CCc2ccc(O[C@H]3CCOC3)cc21` [Example 275, 4-[4-(2-oxo-2-(6-[(3S)-oxolan-3-yloxy]-2,3-dihydro-1H-indol-1-yl}ethyl)phenyl]-1,2-dihydrophthalazin-1-one], the half-inhibitory concentration (IC50) on ROCK2 and on ROCK1 was 0.1 to 100 nM throughout.
On to `COCCOc1ccn2ncc(C(=O)Nc3ccc(-c4n[nH]c(=O)c5ccccc45)cc3)c2c1` [Example 184, 5-(2-methoxyethoxy)-N-[4-(4-oxo-3,4-dihydrophthalazin-1-yl)phenyl]pyrazolo[1,5-a]pyridine-3-carboxamide], for which the IC50 on ROCK2 and on ROCK1 was 0.1 to 100 nM throughout.
With `O=C(Nc1ccc(-c2n[nH]c(=O)c3ccccc23)cc1)c1cn(C2CCNCC2)nn1` [Example 372, N-(4-(4-Oxo-3,4-dihydrophthalazin-1-yl)phenyl)-1-(piperidin-4-yl)-1H-1,2,3-triazole-4-carboxamide], the half-inhibitory concentration (IC50) on ROCK2 and at ROCK1 was 101 to 1000 nM in each case.
As for `COc1ccc2[nH]nc(C(=O)Nc3ccc(-c4n[nH]c(=O)c5ccccc45)cc3)c2c1` [Example 123, 5-methoxy-N-[4-(4-oxo-3,4-dihydrophthalazin-1-yl)phenyl]-1H-indazole-3-carboxamide], the IC50 was 0.1 to 100 nM against ROCK2 and 101 to 1000 nM at ROCK1.
The corresponding values for `O=C(Cc1ccc(-c2n[nH]c(=O)c3ccccc23)cc1)N1CCc2ccc(OCc3ccccc3)cc21` [Example 83, 4-(4-(2-(6-(Benzyloxy)indolin-1-yl)-2-oxoethyl)phenyl)phthalazin-1(2H)-one] are 0.1 to 100 nM and 0.1 to 100 nM.
The like results for `Cc1cc(NC(=O)c2c3ccccc3nn2CCN(C)C)ccc1-c1n[nH]c(=O)c2ccccc12` [Example 304, 2-[2-(dimethylamino)ethyl]-N-[3-methyl-4-(4-oxo-3,4-dihydrophthalazin-1-yl)phenyl]-2H-indazole-3-carboxamide] were, in that order, 0.1 to 100 nM and 101 to 1000 nM.
As for `CC(C)c1c(C(=O)Nc2ccc(-c3n[nH]c(=O)c4ccccc34)cc2)nnn1-c1ccccc1` [Example 221, N-[4-(4-oxo-3,4-dihydrophthalazin-1-yl)phenyl]-1-phenyl-5-(propan-2-yl)-1H-1,2,3-triazole-4-carboxamide], the IC50 at ROCK2 and on ROCK1 was 101 to 1000 nM in each case.
With `CC1Cc2ccccc2N1C(=O)Cc1ccc(-c2n[nH]c(=O)c3ccccc23)cc1` (centres unmarked) [Example 40, 4-{4-[2-(2-methyl-2,3-dihydro-1H-indol-1-yl)-2-oxoethyl]phenyl}-1,2-dihydrophthalazin-1-one], the figures for the IC50 against ROCK2 and on ROCK1 were 0.1 to 100 nM and 101 to 1000 nM, respectively.
The like results for `O=c1[nH]nc(-c2ccc(Nc3ncc(-c4ccccc4)s3)cc2)c2ccccc12` [Example 88, 4-(4-((5-Phenylthiazol-2-yl)amino)phenyl)phthalazin-1(2H)-one] were, in that order, 0.1 to 100 nM and 1000 to 50000 nM.

These data come from patent US9926282B2, “Phthalazinones and isoquinolinones as rock inhibitors” (BRISTOL-MYERS SQUIBB COMPANY, priority 2013, dated 2018).
